Eight molecules from ChEMBL document CHEMBL1138806, “A cyclopent-2-enecarbonyl group mimics proline at the P2 position of prolyl oligopeptidase inhibitors” (J Med Chem, 2004) can be followed below.

Data set [1] in a line: Partition coefficient (logP) determined in a 1-octanol-phosphate buffer system. It counts as physicochemical.
Data set [2] deals with T1, Prolyl endopeptidase (Sus scrofa, UniProt P23687). As to the kind of experiment: Inhibitory activity against prolyl oligopeptidase of porcine brain homogenate.
T1 sequence (P23687 whole entry): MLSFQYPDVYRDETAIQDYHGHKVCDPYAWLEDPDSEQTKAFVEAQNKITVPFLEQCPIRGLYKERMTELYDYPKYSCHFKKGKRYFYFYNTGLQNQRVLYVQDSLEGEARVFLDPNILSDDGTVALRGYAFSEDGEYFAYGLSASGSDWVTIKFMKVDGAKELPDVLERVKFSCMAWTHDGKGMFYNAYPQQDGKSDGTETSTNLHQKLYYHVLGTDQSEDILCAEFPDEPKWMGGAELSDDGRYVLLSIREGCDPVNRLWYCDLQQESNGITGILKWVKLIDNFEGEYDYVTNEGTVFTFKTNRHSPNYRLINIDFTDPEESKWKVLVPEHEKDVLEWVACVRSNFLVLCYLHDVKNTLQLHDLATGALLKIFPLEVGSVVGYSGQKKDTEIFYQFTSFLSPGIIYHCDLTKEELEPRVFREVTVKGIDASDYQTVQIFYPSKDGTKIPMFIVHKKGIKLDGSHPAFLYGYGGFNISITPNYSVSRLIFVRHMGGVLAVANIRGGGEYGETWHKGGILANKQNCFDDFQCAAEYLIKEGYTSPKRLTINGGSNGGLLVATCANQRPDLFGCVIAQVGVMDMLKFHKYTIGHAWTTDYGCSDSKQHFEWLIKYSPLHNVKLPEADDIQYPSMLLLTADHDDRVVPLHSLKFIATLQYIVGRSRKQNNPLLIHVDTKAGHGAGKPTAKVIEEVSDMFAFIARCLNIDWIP
Data set [3] has as its target T1, Prolyl endopeptidase. As to the kind of experiment: Inhibitory activity against purified porcine prolyl oligopeptidase.

In data set [1], `N#C[C@@H]1CCCN1C(=O)[C@@H]1CCCN1C(=O)CCCc1ccccc1` showed a logP of 1.6.
With `O=C(NCc1ccccc1)C1=C(C(=O)N2CCCC2)CCC1`, 230 nM corresponded to half-maximal inhibition at Prolyl endopeptidase [2] (IC50).
At Prolyl endopeptidase [2], `O=C(NCc1ccccc1)C1=CCC[C@@H]1C(=O)N1CCC[C@H]1C(=O)CO` returned an IC50 of 52 nM.
The molecule `N#C[C@@H]1CCCN1C(=O)[C@@H]1CCC=C1C(=O)CCCc1ccccc1` yielded a logP in data set [1] of 2.4. The molecule also had a Ki on Prolyl endopeptidase [3] of 0.03 nM. Besides, at Prolyl endopeptidase [2], the IC50 worked out at 0.2 nM.
`O=C(CO)[C@@H]1CCCN1C(=O)[C@@H]1CCCN1C(=O)NCc1ccccc1` yielded a logP in data set [1] of 0.2. At Prolyl endopeptidase [3], this molecule came in with a Ki of 0.06 nM. On Prolyl endopeptidase [2], it took 0.2 nM to reach half-maximal inhibition (IC50).
Consider `O=C([C@@H]1CCCN1C(=O)CCCc1ccccc1)N1CCCC1`, for which the logP in data set [1] amounted to 1.8.
At Prolyl endopeptidase [2], `N#C[C@@H]1CCCN1C(=O)[C@H]1CCC=C1C(=O)CCCc1ccccc1` returned an IC50 of 5 nM.
As for `O=C(NCc1ccccc1)C1=CCC[C@H]1C(=O)N1CCC[C@H]1C(=O)CO`, the logP in data set [1] came out at 0.6. The molecule also displayed a Ki at Prolyl endopeptidase [3] of 0.15 nM. Also, the IC50 against Prolyl endopeptidase [2] was 0.3 nM.

In general, logP refers to the decadic logarithm of the partition coefficient of the neutral form, usually between octanol and water. Read a low logP as lower lipophilicity. What is called IC50 is the point on the concentration scale where inhibition reaches its midpoint. Low readings indicate higher potency, high ones lower potency. By Ki is commonly meant a dissociation constant, usually derived from enzyme kinetics or from competition with a known ligand.
